Assay results: PubChem BioAssay AID330 (DTP/NCI, 2004)
Where “and” joins values, the source holds several entries; their conditions need not be identical. Equal values may be shown once. Inconclusive results and toxic doses are left out. Square brackets hold non-standard residues; d marks the D form. Peptide text beside a SMILES is read from it. * marks the point of attachment. ξ: configuration not given here. Cbz = O=C(OCc1ccccc1)*; Bn = c1ccc(C*)cc1; ξC = NC(CS)C(=O)O

System: P388 leukemia ip, CD2F1 mice, survival T/C
Test: NCI In Vivo Anticancer Drug Screen. Data for tumor model P388 Leukemia (intraperitoneal) in CD2F1 (CDF1) mice
Settings: endpoint: median survival time, higher = longer survival
Summary of the method: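 Mice carrying the transplanted tumor received test compound or vehicle. Survival was recorded in each group, and the value is the treated-group measurement divided by that of the vehicle-treated control group.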

[1] = dose: 12.5 mg/kg/injection, schedule: Q04DX003 (ip), vehicle: Klucel (hydroxypropylcellulose) (HPC)
[2] = dose: 25.0 mg/kg/injection, schedule: Q04DX003 (ip), vehicle: Klucel (hydroxypropylcellulose) (HPC)
[3] = dose: 50.0 mg/kg/injection, schedule: Q01DX005 (ip), vehicle: Klucel (hydroxypropylcellulose) (HPC)
[4] = dose: 100.0 mg/kg/injection, schedule: Q01DX005 (ip), vehicle: Klucel (hydroxypropylcellulose) (HPC)
[5] = dose: 200.0 mg/kg/injection, schedule: Q01DX005 (ip), vehicle: Klucel (hydroxypropylcellulose) (HPC)
[6] = dose: 50.0 mg/kg/injection, schedule: Q04DX003 (ip), vehicle: saline with Tween-80
[7] = dose: 100.0 mg/kg/injection, schedule: Q04DX003 (ip), vehicle: saline with Tween-80
[8] = dose: 50.0 mg/kg/injection, schedule: Q01DX005 (ip), vehicle: saline with Tween-80
[9] = dose: 100.0 mg/kg/injection, schedule: Q01DX005 (ip), vehicle: saline with Tween-80
[10] = dose: 200.0 mg/kg/injection, schedule: Q01DX005 (ip), vehicle: saline with Tween-80
[11] = dose: 50.0 mg/kg/injection, schedule: Q01DX005 (ip), vehicle: saline
[12] = dose: 200.0 mg/kg/injection, schedule: Q01DX005 (ip), vehicle: saline
[13] = dose: 25.0 mg/kg/injection, schedule: Q01DX009 (ip), vehicle: Klucel (hydroxypropylcellulose) (HPC)
[14] = dose: 50.0 mg/kg/injection, schedule: Q01DX009 (ip), vehicle: Klucel (hydroxypropylcellulose) (HPC)
[15] = dose: 100.0 mg/kg/injection, schedule: Q01DX009 (ip), vehicle: Klucel (hydroxypropylcellulose) (HPC)
[16] = dose: 60.0 mg/kg/injection, schedule: Q01DX005 (ip), vehicle: saline with Tween-80
[17] = dose: 120.0 mg/kg/injection, schedule: Q01DX005 (ip), vehicle: saline with Tween-80
[18] = dose: 1.25 mg/kg/injection, schedule: Q01DX009 (ip), vehicle: saline
[19] = dose: 2.5 mg/kg/injection, schedule: Q01DX009 (ip), vehicle: saline
[20] = dose: 5.0 mg/kg/injection, schedule: Q01DX009 (ip), vehicle: saline
[21] = dose: 60.0 mg/kg/injection, schedule: Q01DX005 (ip), vehicle: saline
[22] = dose: 120.0 mg/kg/injection, schedule: Q01DX005 (ip), vehicle: saline
[23] = dose: 240.0 mg/kg/injection, schedule: Q01DX005 (ip), vehicle: saline

Compound: COC(C)(C)[CH]([Hg][Cl])n1ccccc1=O (stereo not given)
- T/C (dose: 6.25 mg/kg/injection, schedule: Q04DX003 (ip), vehicle: Klucel (hydroxypropylcellulose) (HPC)): 100 % of control
- T/C [1]: 93 % of control
- T/C [2]: 99 % of control and 100 % of control

Compound: N=C(N)S(=O)(=O)c1ccccc1
- T/C [1]: 102 % of control and 106 % of control
- T/C [2]: 106 % of control and 108 % of control (2×)
- T/C (dose: 50.0 mg/kg/injection, schedule: Q04DX003 (ip), vehicle: Klucel (hydroxypropylcellulose) (HPC)): 102 % of control and 107 % of control and 121 % of control
- T/C (dose: 100.0 mg/kg/injection, schedule: Q04DX003 (ip), vehicle: Klucel (hydroxypropylcellulose) (HPC)): 112 % of control
- T/C (dose: 200.0 mg/kg/injection, schedule: Q04DX003 (ip), vehicle: Klucel (hydroxypropylcellulose) (HPC)): 118 % of control

Compound: CC(C)C(NC(=O)C(Cc1ccc(O)cc1)NC(=O)OCc1ccccc1)C(=O)O (stereo not drawn) (Cbz-Tyr-Val-OH; configuration not given here)
- T/C [3]: 103 % of control
- T/C [4]: 100 % of control
- T/C [5]: 100 % of control

Compound: CN(C)C(=O)Nc1cccc(OC(=O)Nc2ccccc2)c1
- T/C (dose: 25.0 mg/kg/injection, schedule: Q04DX003 (ip), vehicle: saline with Tween-80): 101 % of control
- T/C [6]: 101 % of control
- T/C [7]: 90 % of control

Compound: OC(Cc1cncc(CC(O)(C(F)(F)F)C(F)(F)F)n1)(C(F)(F)F)C(F)(F)F
- T/C (dose: 50.0 mg/kg/injection, schedule: Q01DX009 (ip), vehicle: saline): 99 % of control
- T/C (dose: 100.0 mg/kg/injection, schedule: Q01DX009 (ip), vehicle: saline): 98 % of control
- T/C (dose: 200.0 mg/kg/injection, schedule: Q01DX009 (ip), vehicle: saline): 102 % of control

Compound: CCCN1C(=O)CC(NC(C)=O)C1=O (stereo not given)
- T/C [8]: 107 % of control
- T/C [9]: 107 % of control
- T/C [10]: 107 % of control

Compound: Cc1nc2[nH]ncc2c(=O)n1N
- T/C [11]: 97 % of control
- T/C (dose: 100.0 mg/kg/injection, schedule: Q01DX005 (ip), vehicle: saline): 108 % of control
- T/C [12]: 101 % of control

Compound: CCOc1ccc(N=C([Se])CC)cc1
- T/C (dose: 6.25 mg/kg/injection, schedule: Q01DX009 (ip), vehicle: Klucel (hydroxypropylcellulose) (HPC)): 109 % of control
- T/C (dose: 12.5 mg/kg/injection, schedule: Q01DX009 (ip), vehicle: Klucel (hydroxypropylcellulose) (HPC)): 102 % of control
- T/C [13]: 92 % of control

Compound: O=C(SCc1oc2ccccc2c1O)c1ccccc1
- T/C (dose: 12.5 mg/kg/injection, schedule: Q01DX009 (ip), vehicle: saline with Tween-80): 103 % of control
- T/C (dose: 25.0 mg/kg/injection, schedule: Q01DX009 (ip), vehicle: saline with Tween-80): 104 % of control
- T/C (dose: 50.0 mg/kg/injection, schedule: Q01DX009 (ip), vehicle: saline with Tween-80): 112 % of control
- T/C (dose: 100.0 mg/kg/injection, schedule: Q01DX009 (ip), vehicle: saline with Tween-80): 94 % of control

Compound: Cc1cc(C)c2c(c1)/C(=C/C(=O)c1ccccc1)C(=O)N2
- T/C [14]: 100 % of control
- T/C [15]: 95 % of control
- T/C (dose: 200.0 mg/kg/injection, schedule: Q01DX009 (ip), vehicle: Klucel (hydroxypropylcellulose) (HPC)): 100 % of control

Compound: CCC1C(=O)C=C(c2ccccc2)CC1c1ccccc1 (stereo not given)
- T/C [8]: 111 % of control
- T/C [9]: 102 % of control
- T/C [10]: 93 % of control

Compound: [Cl][Pd][Cl].[NH-]C(CO)C(=O)O (stereo not given)
- T/C (dose: 12.5 mg/kg/injection, schedule: Q01DX005 (ip), vehicle: saline): 94 % of control
- T/C (dose: 25.0 mg/kg/injection, schedule: Q01DX005 (ip), vehicle: saline): 102 % of control
- T/C [11]: 106 % of control and 98 % of control

Compound: O=C(N/N=C/c1ccco1)C(=O)Nc1ccc(Cl)c([N+](=O)[O-])c1
- T/C [8]: 91 % of control
- T/C [9]: 89 % of control
- T/C [10]: 105 % of control

Compound: COc1cc(N(CC(C)Br)CC(C)Br)ccc1N=Nc1ccccc1C(=O)O (stereo not given)
- T/C (dose: 1.56 mg/kg/injection, schedule: Q01DX009 (ip), vehicle: saline with Tween-80): 164 % of control
- T/C (dose: 3.12 mg/kg/injection, schedule: Q01DX009 (ip), vehicle: saline with Tween-80): 160 % of control and 169 % of control

Compound: Cc1ccc(C(C)C)c2c1CN(CCCN1COc3c(C(C)C)ccc(C)c3C1)CO2
- T/C [16]: 91 % of control
- T/C [17]: 86 % of control

Compound: CCN(C)c1cc2c3c(c1)CCCN3CCC2
- T/C [18]: 113 % of control
- T/C (dose: 1.25 mg/kg/injection, schedule: Q04DX003 (ip), vehicle: saline): 100 % of control
- T/C [19]: 109 % of control
- T/C (dose: 2.5 mg/kg/injection, schedule: Q04DX003 (ip), vehicle: saline): 95 % of control
- T/C [20]: 104 % of control
- T/C (dose: 5.0 mg/kg/injection, schedule: Q04DX003 (ip), vehicle: saline): 109 % of control

Compound: O=c1[nH]c2ccccc2cc1CBr
- T/C (dose: 50.0 mg/kg/injection, schedule: Q04DX002 (ip), vehicle: Klucel (hydroxypropylcellulose) (HPC)): 95 % of control
- T/C (dose: 100.0 mg/kg/injection, schedule: Q04DX002 (ip), vehicle: Klucel (hydroxypropylcellulose) (HPC)): 102 % of control and 104 % of control
- T/C (dose: 400.0 mg/kg/injection, schedule: Q04DX002 (ip), vehicle: Klucel (hydroxypropylcellulose) (HPC)): 96 % of control

Compound: CCCCCCCCN1CCOCCOCCN(CCCCCCCC)c2nc(Cl)nc(n2)NCCOCCOCCNc2nc(Cl)nc1n2
- T/C [16]: 98 % of control
- T/C [17]: 93 % of control

Compound: Nc1ccc2nc3ccc(=O)cc-3n(-c3ccccc3)c2c1
- T/C (dose: 0.5 mg/kg/injection, schedule: Q01DX009 (ip), vehicle: saline): 115 % of control
- T/C (dose: 1.0 mg/kg/injection, schedule: Q01DX009 (ip), vehicle: saline): 124 % of control
- T/C [18]: 102 % of control
- T/C [19]: 104 % of control
- T/C [20]: 105 % of control
- T/C (dose: 20.0 mg/kg/injection, schedule: Q01DX009 (ip), vehicle: saline): 119 % of control
- T/C (dose: 40.0 mg/kg/injection, schedule: Q01DX009 (ip), vehicle: saline): 114 % of control

Compound: O=C(CNC(=O)OCc1ccccc1)NCC(=O)NC(CSCc1ccccc1)C(=O)O (stereo not drawn) (Cbz-Gly-Gly-[ξC](Bn)-OH)
- T/C [3]: 101 % of control
- T/C [4]: 100 % of control
- T/C [5]: 100 % of control

Compound: CCOC1(NC(=O)N(C)C)C2CCCC21 (stereo not given)
- T/C [13]: 97 % of control
- T/C [14]: 97 % of control
- T/C [15]: 94 % of control

Compound: O=C(O)C1(NO)CCCC1
- T/C (dose: 100.0 mg/kg/injection, schedule: Q04DX003 (ip), vehicle: saline): 100 % of control
- T/C (dose: 200.0 mg/kg/injection, schedule: Q04DX003 (ip), vehicle: saline): 118 % of control
- T/C (dose: 400.0 mg/kg/injection, schedule: Q04DX003 (ip), vehicle: saline): 95 % of control

Compound: O=S(O)CCCCSSCC(O)CO (stereo not given)
- T/C (dose: 30.0 mg/kg/injection, schedule: Q01DX005 (ip), vehicle: saline): 101 % of control
- T/C [11]: 111 % of control
- T/C [21]: 115 % of control
- T/C [22]: 115 % of control
- T/C [12]: 111 % of control
- T/C [23]: 117 % of control

Compound: OCCOc1ccc2ccccc2c1-c1c(OCCO)ccc2ccccc12
- T/C [6]: 100 % of control
- T/C [7]: 100 % of control
- T/C (dose: 200.0 mg/kg/injection, schedule: Q04DX003 (ip), vehicle: saline with Tween-80): 100 % of control
- T/C (dose: 400.0 mg/kg/injection, schedule: Q04DX003 (ip), vehicle: saline with Tween-80): 100 % of control

Compound: CO[C@@H]1[C@H](O)c2ccccc2N1C(C)=O
- T/C [21]: 102 % of control
- T/C [22]: 108 % of control
- T/C [23]: 101 % of control

Compound: CCN(CC)CCNc1ccc(O)c2sc3ccccc3c(=O)c12
- T/C (dose: 6.25 mg/kg/injection, schedule: Q01DX009 (ip), vehicle: saline + alcohol): 94 % of control
- T/C (dose: 12.5 mg/kg/injection, schedule: Q01DX009 (ip), vehicle: saline + alcohol): 89 % of control
- T/C (dose: 25.0 mg/kg/injection, schedule: Q01DX009 (ip), vehicle: saline + alcohol): 99 % of control
- T/C (dose: 50.0 mg/kg/injection, schedule: Q01DX009 (ip), vehicle: saline + alcohol): 103 % of control
